≈ marks a conversion by molar mass, not a printed value. Values belong to the compound of their own block, whether it stands above or below them.
What was measured:
[1] = target: Voltage-gated inwardly rectifying potassium channel KCNH2 (Homo sapiens, UniProt Q12809); assay: Inhibition of hERG; type: toxicity
hERG (KCNH2) [2] = target: T1, hERG (KCNH2) (Homo sapiens, UniProt Q12809); assay: Inhibition of hERG potassium […] at 6.25 uM relative to control; type: toxicity
Escherichia coli [3] = assay: Antibacterial activity against Escherichia coli assessed as zone of inhibition at 400 ug/ml by agar disk diffusion method; type: functional; details: read-out: IZ
Bacillus subtilis [4] = assay: Antibacterial activity against Bacillus subtilis assessed as diameter of zone of inhibition at 400 ug/ml by agar disk diffusion method; type: functional; details: read-out: IZ
Escherichia coli [5] = assay: Antibacterial activity against Escherichia coli assessed as zone of inhibition at 600 ug/ml by agar disk diffusion method; type: functional; details: read-out: IZ
Bacillus subtilis [6] = assay: Antibacterial activity against Bacillus subtilis assessed as diameter of zone of inhibition at 600 ug/ml by agar disk diffusion method; type: functional; details: read-out: IZ
Hepatitis C virus = assay: Antiviral activity against Hepatitis C virus genotype 2a infected in human Huh-7 cells assessed as reduction in viral infection; type: functional, organism-based, Hepacivirus hominis
hERG (KCNH2) [7] = target: T1, hERG (KCNH2); assay: Inhibition of hERG potassium […] at 100 uM relative to control; type: toxicity
Staphylococcus aureus [8] = assay: Antibacterial activity against Staphylococcus aureus assessed as zone of inhibition at 150 ug/ml by agar disc diffusion method; type: functional; details: read-out: IZ
Pseudomonas aeruginosa [9] = assay: Antibacterial activity against Pseudomonas aeruginosa assessed as zone of inhibition at 200 ug/ml by agar disc diffusion method; type: functional; details: read-out: IZ
Pseudomonas aeruginosa [10] = assay: Antibacterial activity against Pseudomonas aeruginosa assessed as zone of inhibition at 250 ug/ml by agar disc diffusion method; type: functional; details: read-out: IZ
Staphylococcus aureus [11] = assay: Antibacterial activity against Staphylococcus aureus assessed as zone of inhibition at 200 ug/ml by agar disc diffusion method; type: functional; details: read-out: IZ
Escherichia coli [12] = assay: Antibacterial activity against Escherichia coli assessed as zone of inhibition at 150 ug/ml by agar disc diffusion method; type: functional; details: read-out: IZ
Escherichia coli [13] = assay: Antibacterial activity against Escherichia coli assessed as zone of inhibition at 200 ug/ml by agar disc diffusion method; type: functional; details: read-out: IZ
Pseudomonas aeruginosa [14] = assay: Antibacterial activity against Pseudomonas aeruginosa assessed as zone of inhibition at 150 ug/ml by agar disc diffusion method; type: functional; details: read-out: IZ
Bacillus subtilis [15] = assay: Antibacterial activity against Bacillus subtilis assessed as zone of inhibition at 200 ug/ml by agar disc diffusion method; type: functional; details: read-out: IZ
Escherichia coli [16] = assay: Antibacterial activity against Escherichia coli assessed as zone of inhibition at 250 ug/ml by agar disc diffusion method; type: functional; details: read-out: IZ
Bacillus subtilis [17] = assay: Antibacterial activity against Bacillus subtilis assessed as zone of inhibition at 150 ug/ml by agar disc diffusion method; type: functional; details: read-out: IZ
Bacillus subtilis [18] = assay: Antibacterial activity against Bacillus subtilis assessed as zone of inhibition at 250 ug/ml by agar disc diffusion method; type: functional; details: read-out: IZ
Staphylococcus aureus [19] = assay: Antibacterial activity against Staphylococcus aureus assessed as zone of inhibition at 250 ug/ml by agar disc diffusion method; type: functional; details: read-out: IZ
Escherichia coli [20] = assay: Antibacterial activity against Escherichia coli assessed as zone of inhibition at 10 ug/ml by agar disc diffusion method; type: functional; details: read-out: IZ
Aspergillus niger [21] = assay: Antifungal activity against Aspergillus niger assessed as zone of inhibition at 25 ug/ml by disc diffusion method; type: functional; details: read-out: IZ
Aspergillus niger [22] = assay: Antifungal activity against Aspergillus niger assessed as zone of inhibition at 35 ug/ml by disc diffusion method; type: functional; details: read-out: IZ
Staphylococcus aureus [23] = assay: Antibacterial activity against Staphylococcus aureus assessed as zone of inhibition at 35 ug/ml by agar disc diffusion method; type: functional; details: read-out: IZ
Escherichia coli [24] = assay: Antibacterial activity against Escherichia coli assessed as zone of inhibition at 35 ug/ml by agar disc diffusion method; type: functional; details: read-out: IZ
Escherichia coli [25] = assay: Antibacterial activity against Escherichia coli assessed as zone of inhibition at 25 ug/ml by agar disc diffusion method; type: functional; details: read-out: IZ
Candida metapsilosis [26] = assay: Antifungal activity against Candida metapsilosis assessed as zone of inhibition at 10 ug/ml by disc diffusion method; type: functional; details: Lodderomyces metapsilosis, read-out: IZ
Staphylococcus aureus [27] = assay: Antibacterial activity against Staphylococcus aureus assessed as zone of inhibition at 25 ug/ml by agar disc diffusion method; type: functional; details: read-out: IZ
Candida metapsilosis [28] = assay: Antifungal activity against Candida metapsilosis assessed as zone of inhibition at 35 ug/ml by disc diffusion method; type: functional; details: Lodderomyces metapsilosis, read-out: IZ
Candida metapsilosis [29] = assay: Antifungal activity against Candida metapsilosis assessed as zone of inhibition at 25 ug/ml by disc diffusion method; type: functional; details: Lodderomyces metapsilosis, read-out: IZ
Staphylococcus aureus [30] = assay: Antibacterial activity against Staphylococcus aureus assessed as zone of inhibition at 10 ug/ml by agar disc diffusion method; type: functional; details: read-out: IZ
Aspergillus niger [31] = assay: Antifungal activity against Aspergillus niger assessed as zone of inhibition at 10 ug/ml by disc diffusion method; type: functional; details: read-out: IZ
Staphylococcus aureus [32] = assay: Antibacterial activity against Staphylococcus aureus assessed as zone of inhibition at 25 ug/ml by agar well diffusion method; type: functional; details: read-out: IZ
Escherichia coli [33] = assay: Antibacterial activity against Escherichia coli assessed as zone of inhibition at 25 ug/ml by agar well diffusion method; type: functional; details: read-out: IZ
Staphylococcus aureus [34] = assay: Antibacterial activity against Staphylococcus aureus assessed as zone of inhibition at 35 ug/ml by agar well diffusion method; type: functional; details: read-out: IZ
Staphylococcus aureus [35] = assay: Antibacterial activity against Staphylococcus aureus assessed as zone of inhibition at 10 ug/ml by agar well diffusion method; type: functional; details: read-out: IZ
Escherichia coli [36] = assay: Antibacterial activity against Escherichia coli assessed as zone of inhibition at 10 ug/ml by agar well diffusion method; type: functional; details: read-out: IZ
Escherichia coli [37] = assay: Antibacterial activity against Escherichia coli assessed as zone of inhibition at 35 ug/ml by agar well diffusion method; type: functional; details: read-out: IZ
Aphis craccivora = assay: Anti-insecticidal activity against Aphis craccivora; type: functional
Shigella flexneri = assay: Antibacterial activity against Shigella flexneri NIHJ assessed as reduction in bacterial growth by CLSI protocol based agar dilution method; type: functional
Escherichia coli [38] = assay: Antibacterial activity against Escherichia coli 209p assessed as reduction in bacterial growth by CLSI protocol based agar dilution method; type: functional
Staphylococcus aureus [39] = assay: Antibacterial activity against Staphylococcus aureus assessed as reduction in bacterial growth by CLSI protocol based agar dilution method; type: functional
Pseudomonas aeruginosa [40] = assay: Antibacterial activity against Pseudomonas aeruginosa assessed as reduction in bacterial growth by CLSI protocol based agar dilution method; type: functional

T1 sequence (Q12809 whole entry, the tested form may be a part): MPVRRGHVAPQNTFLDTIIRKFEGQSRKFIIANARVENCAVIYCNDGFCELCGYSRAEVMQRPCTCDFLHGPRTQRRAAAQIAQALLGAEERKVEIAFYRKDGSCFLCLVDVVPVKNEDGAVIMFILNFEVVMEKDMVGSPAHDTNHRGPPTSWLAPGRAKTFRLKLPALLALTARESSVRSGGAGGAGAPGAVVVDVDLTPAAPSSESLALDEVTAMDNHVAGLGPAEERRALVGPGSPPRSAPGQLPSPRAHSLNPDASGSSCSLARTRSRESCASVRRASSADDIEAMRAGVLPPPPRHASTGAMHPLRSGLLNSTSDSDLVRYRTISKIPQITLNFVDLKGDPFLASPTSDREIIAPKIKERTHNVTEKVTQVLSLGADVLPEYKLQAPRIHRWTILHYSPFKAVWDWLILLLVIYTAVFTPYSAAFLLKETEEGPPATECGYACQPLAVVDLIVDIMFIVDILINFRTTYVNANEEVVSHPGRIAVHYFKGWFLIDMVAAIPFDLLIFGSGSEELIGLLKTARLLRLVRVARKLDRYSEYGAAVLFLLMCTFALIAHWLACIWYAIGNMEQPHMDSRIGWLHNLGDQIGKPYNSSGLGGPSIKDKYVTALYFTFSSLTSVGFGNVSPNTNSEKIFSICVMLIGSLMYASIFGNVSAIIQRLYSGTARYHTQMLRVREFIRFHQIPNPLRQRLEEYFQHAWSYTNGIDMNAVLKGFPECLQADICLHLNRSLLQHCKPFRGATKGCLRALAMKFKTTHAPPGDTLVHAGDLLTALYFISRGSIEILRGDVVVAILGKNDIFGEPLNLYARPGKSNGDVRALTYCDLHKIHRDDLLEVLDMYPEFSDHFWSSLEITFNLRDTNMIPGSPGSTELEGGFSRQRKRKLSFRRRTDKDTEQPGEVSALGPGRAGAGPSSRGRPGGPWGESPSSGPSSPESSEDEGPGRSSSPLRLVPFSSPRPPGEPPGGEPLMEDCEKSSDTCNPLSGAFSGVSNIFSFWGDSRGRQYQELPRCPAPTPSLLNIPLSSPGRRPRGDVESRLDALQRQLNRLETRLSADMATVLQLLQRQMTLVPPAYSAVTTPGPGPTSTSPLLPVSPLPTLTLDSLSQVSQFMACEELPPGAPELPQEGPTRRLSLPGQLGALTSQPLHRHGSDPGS
Chain of Voltage-gated inwardly rectifying potassium channel KCNH2 (Q12809 whole entry): as the sequence (Q12809 whole entry, the tested form may be a part) above

Structure (SMILES): Cc1cc(C)c2ccc3nc(-c4ccccc4)c(CN4CCCC4)n3c2n1
- IC50 [1]: 92200 nM

Structure (SMILES): Cc1cc(C)c2ccc3nc(-c4ccc(F)cc4)c(CN4CCCCC4)n3c2n1
- inhibition at 6.25 µM (hERG (KCNH2) [2]): 11%

Structure (SMILES): COc1ccc(-c2cc3cccnc3n3c2nc2ccccc23)cc1
- zone of inhibition at 400 µg/mL (Escherichia coli [3]): 11.5 mm
- zone of inhibition at 400 µg/mL (Bacillus subtilis [4]): 7.5 mm
- zone of inhibition at 600 µg/mL (Escherichia coli [5]): 12.5 mm
- zone of inhibition at 600 µg/mL (Bacillus subtilis [6]): 8.5 mm

- EC50 (Hepatitis C virus): 2800 nM
Structure (SMILES): Cc1ccccc1-c1cnc2ccc3c(C(F)(F)F)cc(C(F)(F)F)nc3n12

Structure (SMILES): Cc1cc(C)c2ccc3nc(-c4ccccc4)c(CN4CCOCC4)n3c2n1
- inhibition at 100 µM (hERG (KCNH2) [7]): 10.1%

- EC50 (Hepatitis C virus): 2600 nM
Structure (SMILES): Cc1cccc(-c2cnc3ccc4c(C(F)(F)F)cc(C(F)(F)F)nc4n23)c1

Structure (SMILES): O=[N+]([O-])c1cccc(-c2cc3cccnc3n3c2nc2ccc(O)cc23)c1
- zone of inhibition at 150 µg/mL (Staphylococcus aureus [8]): 18 mm
- zone of inhibition at 200 µg/mL (Pseudomonas aeruginosa [9]): 20 mm
- zone of inhibition at 250 µg/mL (Pseudomonas aeruginosa [10]): 22 mm
- zone of inhibition at 200 µg/mL (Staphylococcus aureus [11]): 20 mm
- zone of inhibition at 150 µg/mL (Escherichia coli [12]): 17 mm
- zone of inhibition at 200 µg/mL (Escherichia coli [13]): 22 mm
- zone of inhibition at 150 µg/mL (Pseudomonas aeruginosa [14]): 17 mm
- zone of inhibition at 200 µg/mL (Bacillus subtilis [15]): 19 mm
- zone of inhibition at 250 µg/mL (Escherichia coli [16]): 22 mm
- zone of inhibition at 150 µg/mL (Bacillus subtilis [17]): 16 mm
- zone of inhibition at 250 µg/mL (Bacillus subtilis [18]): 23 mm
- zone of inhibition at 250 µg/mL (Staphylococcus aureus [19]): 22 mm

Structure (SMILES): O=c1oc2ccccc2cc1-c1cnc2c(-c3cccc([N+](=O)[O-])c3)cc3cccnc3n12
- zone of inhibition at 10 µg/mL (Escherichia coli [20]): 8 mm
- zone of inhibition at 25 µg/mL (Aspergillus niger [21]): 20 mm
- zone of inhibition at 35 µg/mL (Aspergillus niger [22]): 28 mm
- zone of inhibition at 35 µg/mL (Staphylococcus aureus [23]): 31 mm
- zone of inhibition at 35 µg/mL (Escherichia coli [24]): 32 mm
- zone of inhibition at 25 µg/mL (Escherichia coli [25]): 2 mm
- zone of inhibition at 10 µg/mL (Candida metapsilosis [26]): 7 mm
- zone of inhibition at 25 µg/mL (Staphylococcus aureus [27]): 19 mm
- zone of inhibition at 35 µg/mL (Candida metapsilosis [28]): 28 mm
- zone of inhibition at 25 µg/mL (Candida metapsilosis [29]): 17 mm
- zone of inhibition at 10 µg/mL (Staphylococcus aureus [30]): 8 mm
- zone of inhibition at 10 µg/mL (Aspergillus niger [31]): 7 mm

Structure (SMILES): Fc1ccc(-c2cc3cccnc3n3c(-c4ccc(Br)cc4)cnc23)c(Cl)c1
- zone of inhibition at 25 µg/mL (Staphylococcus aureus [32]): 16 mm
- zone of inhibition at 25 µg/mL (Escherichia coli [33]): 16 mm
- zone of inhibition at 35 µg/mL (Staphylococcus aureus [34]): 24 mm
- zone of inhibition at 10 µg/mL (Staphylococcus aureus [35]): 6 mm
- zone of inhibition at 10 µg/mL (Escherichia coli [36]): 6 mm
- zone of inhibition at 35 µg/mL (Escherichia coli [37]): 25 mm

Structure (SMILES): O=[N+]([O-])c1cccc(-c2cnc3c(-c4ccc(F)cc4Cl)cc4cccnc4n23)c1
- zone of inhibition at 25 µg/mL (Staphylococcus aureus [32]): 16 mm
- zone of inhibition at 25 µg/mL (Escherichia coli [33]): 16 mm
- zone of inhibition at 35 µg/mL (Staphylococcus aureus [34]): 24 mm
- zone of inhibition at 10 µg/mL (Staphylococcus aureus [35]): 6 mm
- zone of inhibition at 10 µg/mL (Escherichia coli [36]): 6 mm
- zone of inhibition at 35 µg/mL (Escherichia coli [37]): 25 mm

Structure (SMILES): N#Cc1c(N)nc2c(c1N)C(c1ccc(F)cc1)C([N+](=O)[O-])=C1N(Cc3ccc(Cl)nc3)CCN12 (stereo unspecified)
- LC50 (Aphis craccivora): 11 nM

Structure (SMILES): Cc1cc(C)c2ccc3nc(-c4ccccc4)c(CN4CCCCC4)n3c2n1
- IC50 [1]: 1190 nM

- MIC (Shigella flexneri): 3.13 µg/mL (≈ 10.9 µM)
- MIC (Escherichia coli [38]): 3.13 µg/mL (≈ 10.9 µM)
- MIC (Staphylococcus aureus [39]): 25 µg/mL (≈ 87.3 µM)
- MIC (Pseudomonas aeruginosa [40]): > 100 µg/mL
Structure (SMILES): CCn1cnc2cc3c(=O)c(C(=O)O)cn(CC)c3nc21

From ChEMBL document CHEMBL6109108, “A comprehensive review of fused imidazonaphthyridine derivatives: Synthetic approaches and biological applications” (Bioorg Med Chem, 2025)
